Experimental data: patent US20230066049A1, “PEPTIDES USEFUL IN PRESERVATION AND/OR RESTORATION OF FUNCTIONAL PANCREATIC ISLETS AND IN TREATING DIABETES” (THE NATIONAL INSTITUTE FOR BIOTECHNOLOGY IN THE NEGEV LTD., priority 2020, published 2023)
Like-named read-outs stand apart in the source and are kept apart here.

Columns and labels:
[1] = tested on: db/db mice; conditions: Zhang et al., 2019; cited from earlier work
[2] = tested on: PDX1; test: PDX1 IF co-staining in pancreas of STZ/HFD-32-fed mice; format: in vivo, mouse
Experimental: (§1) Male C57BL/6 mice were purchased from Envigo (Jerusalem, Israel). In order to generate the diabetes-based steatosis-NASH mouse model, 2-day-old mice were subjected to a single, low dose subcutaneous injection of streptozotocin (STZ) (200 μg/mouse) and then were fed with the HFD-32 high fat diet starting at the end of week 4. The mice manifested steatosis at 6 weeks and NASH at 8 weeks. These mice are designated herein interchangeably as “NAFLD/diabetes mice model” and “STZ/HFD-32-fed mice”. Mice affected with steatosis were treated with R-Tf-D-LP4 (14 mg/kg) from week 6 to week 8, and mice affected with NASH from week 8 to week 10. The R-Tf-D-LP4 peptide at 14 mg/kg (in 100 μl of Hank's balanced salts solution (HBSS) without calcium) was administered intravenously three times a week. Control groups were intravenously injected with 100 μl of 0.8% DMSO in HBSS buffer from week 6 to week 8 for steatosis affected mice and from week 8 to week […] for NASH affected mice. The final blood DMSO concentration was 0.07% in control and peptide-treated mice.
(§2) At the end of the experiment, the mice were sacrificed by CO2 inhalation and the livers and pancreases were removed. Livers were photographed and the lipid content was assessed. […]

[3] = tested on: Langerhans islets; test: Glucagon IHC staining of Langerhans islets (islet morphology) in STZ/HFD-32-fed mice; format: in vivo, mouse
Experimental: as §1, §2

[4] = tested on: ob/ob mice; conditions: diabetic (ob/ob) mice and NAFLD affected mice; Pittala et al., Cells 2020; cited from earlier work
[5] = tested on: STZ/HFD-32-fed mice; conditions: 2019, cited from earlier work
[6] = tested on: STZ/HFD-32-fed mice; test: NAFLD/diabetes mice model (STZ/HFD-32-fed mice): number and size of Langerhans islets, blood glucose; format: in vivo, mouse; conditions: for Average No. of islets per mouse / Total No. of islets: 14 mg/kg i.v. three times a week
Source text: The HFD-32 diet was as described previously (Fujii, M., et al. Med Mol Morphol, 2013. 46(3): p. 141-52; 507.6 kcal/100 g, 56.7% kcal from fat) comprising 5% egg white powder (MM Ingredients, Wimborne, UK), 6.928% lactose (Pharma Grade, Nelson, UK), 15.88% beef fat (contains 80% fat), 5% AIN93G-mineral mixture, 0.002% tertiary butyl hydroquinone and 1.4% AIN93VX-vitamin mix (MP Biomedical, Illkirch, France), 24.5% milk casein (Shaanxi Fuheng Biotechnology, Xi'an, China), 20% safflower oil (high oleic acid content) (Bustan Briut, Galil, Israel), 6.45% sucrose, 0.43% L-cysteine, 5.5% crystalline cellulose (Sigma), 0.36% choline bitartrate and 8.25% maltodextrin (Bulk Powders, Colchester, UK). Control C57BL/6 mice were fed with a standard chow diet (408.4 kcal/100 g, 57% kcal from carbohydrates, 27% kcal from proteins, 16% from fat (V1154-703, S sniff Spezialdaten, Sosset, Germany).
as §1
At the end of the experiment, the mice were sacrificed by CO2 inhalation and the livers and pancreases were removed. Livers were photographed and the lipid content was assessed. For this purpose, part of the liver was frozen in OCT (optimal cutting temperature) compound, embedded, sectioned, and stained with oil red O. The pancreases were fixed with formaldehyde, embedded in paraffin, sectioned, and subjected to immunohistochemical (IHC) or immunefluorescent (IF) staining, as described below.
(§3) Immunohistochemistry (IHC) and immunofluorescence (IF) staining was performed on 5 μm-thick formalin-fixed and paraffin-embedded pancreatic tissue sections. Sections were deparaffinized (5 minutes in xylene, 3 times), followed by rehydration with a graded ethanol series (50%, 70%, 95%, 100%). Antigen retrieval was performed by 20 min incubation in preheated 0.01 M citrate buffer, pH 6.0 at 95-98° C. Sections were washed with PBS pH 7.4 containing 0.1% Triton-X100 (PBST), incubated in 10% NGS and 1% BSA for 2 h, followed by overnight incubation at 4° C. with primary antibodies (see Table 1). Sections were then washed with PBST. For IHC staining, endogenous peroxidase activity was blocked by incubating the sections in 3% H2O2 for 15 min. Following washing with PBST, sections were incubated for 2 h with the appropriate secondary HRP-conjugated antibodies. Sections were washed with PBST and peroxidase activity was visualized by incubating with DAB. After rinsing in water, the sections were counter-stained with hematoxylin, dehydrated with a graded ethanol series (50-100%), incubated in xylene, and mounted with mounting medium. Finally, images from the sections were collected using an automatic digital slide scanner (Panoramic
MIDI II, 3DHISTECH) with the same light intensity and exposure time. Non-specific control experiments were carried out using the same protocols but omitting incubation with primary antibodies. For IF staining, sections were incubated for 2 h with the appropriate secondary Alexa Fluor conjugated antibodies. […]

[7] = tested on: ob/ob mice; test: Ob/Ob diabetes mouse model: blood glucose, body weight, Langerhans islets; format: in vivo; conditions: 14 mg/kg intravenous three times a week
Experimental: Six week old male (C57BL/6) Ob/Ob (Jackson Laboratory, Bar Harbor, Me.) mice were treated with R-Tf-D-LP4 (14 mg/Kg) from week 6 to week 13 by intravenous administration of the R-Tf-D-LP4 peptide in 100 μl of Hank's balanced salts solution (HBSS) without calcium three times a week. A control group received 100 μl of 0.8% DMSO in HBSS buffer injected intravenously. The final blood DMSO concentration was 0.07% in both control and peptide-treated mice. Blood glucose levels were measured once a week. At the end of the experiment, the mice were sacrificed, and the pancreas was removed and fixed with formaldehyde, embedded in paraffin, sectioned, and subjected to immunefluorescent (IF). The experimental protocol used in the mouse model was approved by the Institutional Animal Care and Use Committee.
as §3
MIDI II, 3DHISTECH) with the same light intensity and exposure time. Non-specific control experiments were carried out using the same protocols but omitting incubation with primary antibodies. For IF staining, sections were incubated for 2 h with the appropriate secondary Alexa Fluor conjugated antibodies. Sections were washed with PBST, counter—stained with DAPI (0.07 μg/ml), washed with PBST, and mounted with mounting media. […]
STZ/HFD-32-fed mice at the end of study before sacrifice. In the case of the ob/ob mice, weekly blood samples were collected from the tail, and blood glucose levels were measured immediately using an Accu-Check Performa blood glucose meter.

[8] = tested on: VDAC1; test: VDAC1 IHC/IF staining of Langerhans islets of STZ/HFD-32-fed mice; format: in vivo, mouse
Experimental: Male C57BL/6 mice were purchased from Envigo (Jerusalem, Israel). In order to generate the diabetes-based steatosis-NASH mouse model, 2-day-old mice were subjected to a single, low dose subcutaneous injection of streptozotocin (STZ) (200 μg/mouse) and then were fed with the HFD-32 high fat diet starting at the end of week 4. The mice manifested steatosis at 6 weeks and NASH at 8 weeks. These mice are designated herein interchangeably as “NAFLD/diabetes mice model” and “STZ/HFD-32-fed mice”. Mice affected with steatosis were treated with R-Tf-D-LP4 (14 mg/kg) from week 6 to week 8, and mice affected with NASH from week 8 to week 10. The R-Tf-D-LP4 peptide at 14 mg/kg (in 100 μl of Hank's balanced salts solution (HBSS) without calcium) was administered intravenously three times a week. […]
as §2
The expression of VDAC1 was examined in the pancreas of STZ/HFD-32 diet-fed mice, representing NAFLD affected mice on a diabetic background with and without R-Tf-D-LP4 peptide treatment as compared to the levels in islets from mice fed with chow-diet (FIG. 5). Formaldehyde-fixed, paraffin-embedded pancreas sections were analyzed by IHC staining for VDAC1 using anti-VDAC1 specific antibodies. […]

[9] = tested on: 3T3-L1 adipocytes; test: Oil Red O staining of intracellular lipids in adipocytes; format: cell-based, mouse; conditions: 10 μM peptide, 24 h
Experimental: 3T3-L1 mouse embryo fibroblasts were purchased from the American Type Culture Collection (ATCC Manassas, Va.) and maintained in a humidified atmosphere of 5% CO2, 95% air at 37° C. in Dulbecco's modified Eagle's growth medium (DMEM) with high glucose ([…]), supplemented with 10% fetal calf serum, and 1% penicillin-streptomycin. For R-Tf-D-LP4 peptide treatment, […] cells (6×10^5/ml at 70-80% confluence) were incubated with the R-Tf-D-LP4 peptide in 500 μl serum-free medium for 24 h at 37° C. and 5% CO2. The cells were then stained with Oil red O as described below.
3T3-L1 cells were washed with PBS, fixed with formaldehyde for 15 min, and then subjected to Oil Red O staining for 30 min at room temperature followed by staining with Hematoxylin. Microscope images were collected to visualize the red oil droplets in the cells. Finally, the cells were washed with H2O followed by three washes with 60% isopropanol with gentle rocking. The Oil Red O stain was extracted with 100% isopropanol for 5 min and the absorbance at 492 nm was measured and normalized to the same number of cells counted before stain extraction.

[10] = tested on: Glut-2; test: Glut-2 IF staining of pancreatic sections of STZ/HFD-32-fed mice; format: in vivo, mouse; conditions: STZ/HFD-32-fed mice at steatosis
Experimental: as §1, §2

[11] = tested on: Ki-67; test: Ki-67 IF staining (proliferation) in pancreas of STZ/HFD-32-fed mice; format: in vivo, mouse; conditions: steatosis stage; compared to chow diet-fed and STZ/HFD-32-fed mice
Experimental: as §1, §2

**Q.** For `O=C(CC(CO)N1CCN(c2ccc(OC(F)(F)F)cc2)CC1)Nc1ccc(Cl)cc1` (stereo not drawn) [VBIT-4, N-(4-chlorophenyl)-4-hydroxy-3-(4-(4-(trifluoromethoxy)phenyl)piperazin-l-yl) butanamide], which glucose tolerance [1] is on record?
**A.** maintained normal glucose tolerance

**Q.** And the hyperglycemia [1]?
**A.** prevented hyperglycemia

**Q.** And the insulin secretion [1]?
**A.** stimulated insulin secretion

**Q.** What does the source list for “D-Lys-D-Trp-D-Thr-D-Trp-D-Lys-D-Asn-D-Ser-D-Asn-D-Gly-D-Ala-D-Thr-D-Trp-D-Ala-D-Leu-D-Asn-D-Val-D-Ala-D-Thr-D-Glu-D-Leu-D-Lys-D-Lys-D-Glu-D-Trp-D-Thr-D-Trp-D-Ser-His-Arg-Pro-Tyr-Ile-Ala-His [R-Tf-D-LP4]”?
**A.** PDX1 staining level ([2]; co-staining PDX1 and glucagon, over the level in control chow-fed mice): highly increased; PDX1 staining level ([2]; co-staining PDX1 and insulin): showed a higher level of staining for PDX1; islet morphology (localization of glucagon-producing cells) ([3]; NASH stage): completely restored; islet morphology (localization of glucagon-producing cells) ([3]; steatosis stage): improved to some extent; blood glucose levels [4]: reduced blood glucose levels; β-oxidation in the liver ([5]; STZ/HFD-32-fed mice, Pittala et al.): accelerated β-oxidation in the liver; liver pathology ([5]; mouse model for NAFLD, WO 2017/037711, Pittala et al.): reverse liver pathology to a normal-like state; number of islets per mouse, Islet size, 1-50 nm ([6]; NASH): 16; number of islets per mouse, Islet size, 51-100 nm ([6]; NASH): 12; number of islets per mouse, Islet size, 101-150 nm ([6]; NASH): 4; number of islets per mouse, Islet size, 151-300 nm ([6]; NASH): 3; Average No. of islets per mouse ([6]; NASH, week 8 to 10): 35; Total No. of islets ([6]; NASH, week 8 to 10, n = 10): 354 (n = 10); size and number of Langerhans islets ([6]; STZ/HFD-32-fed mice, steatosis or NASH stage): both the size and the number of Langerhans islets were increased; blood glucose levels ([6]; STZ/HFD-32 mice model): reduced blood glucose levels; insulin content within the islets ([6]; STZ/HFD-32 mice model): increased insulin content within the islets; number of islets per mouse, Islet size, 1-50 nm ([6]; Steatosis): 16; number of islets per mouse, Islet size, 51-100 nm ([6]; Steatosis): 8; number of islets per mouse, Islet size, 101-150 nm ([6]; Steatosis): 2; number of islets per mouse, Islet size, 151-300 nm ([6]; Steatosis): 1; Average No. of islets per mouse ([6]; Steatosis, week 6 to 8): 27; Total No. of islets ([6]; Steatosis, week 6 to 8, n = 17): 451 (n = 17); further increase of the number of islets over chow diet level ([6]; mice affected with NASH): 30%; number of the islets compared with chow diet-fed mice ([6]; mice with steatosis): to the level observed in mice fed with chow diet; blood glucose levels [7]: reduced the levels of blood glucose; insulin production [7]: improved insulin production; number of Langerhans islets ([7]; H&E and anti-insulin staining): increased the number of islets; body weight (weekly average weight) ([7]; followed for 7 weeks): no such effect was observed; VDAC1 staining level in the islets ([8]; IHC, 14 mg/kg): this level decreased; islet morphology and size (IF co-staining VDAC1 and insulin) ([8]; steatosis stage): displayed a normal morphology and large islets; decrease in the amount of lipid (extraction of Oil red O stain) [9]: 90%; Glut-2 expression in islets [10]: re-expressed; increase in number of Ki-67 positive cells in the islet interior [11]: about 8 fold; increase in number of Ki-67 positive cells outside of the islets [11]: ~3 fold
